These results are taken from PMC4433810 (European journal of medicinal chemistry, 2015).

Data set [1] has as its system HeLa (cervical carcinoma) cells, FR (+). Kind of data set: Cell viability. The conditions noted are these: up to 100 μM. The class given is cell-based.
Data set [2] has as its system KB (oral carcinoma) cells, FR (+). Kind of data set: Cell viability. The class given is cell-based. As to conditions: up to 100 μM.
The subject of data set [3] is histone H4 acetylation (intracellular marker of HDAC1 inhibition) in KB cells. Kind of data set: Western blot analysis of histone H4 acetylation in KB cells. The class given is cell-based. The conditions noted are these: 24 h. For orientation: A western blot detects proteins with antibodies after separation by electrophoresis.
In data set [4] the test system is FR (−) lung cancer cell line A549. Kind of data set: Cell viability. It is filed as cell-based.
For data set [5], the system named is tubulin acetylation (marker of HDAC6 activity) in KB cells. Kind of data set: Western blot analysis of tubulin acetylation in KB cells. It is filed as cell-based. The conditions noted are these: 4 h, at IC50 doses and above.
Data set [6] has as its system KB cells. Kind of data set: Folic acid. It is filed as cell-based. The conditions noted are these: 25 μM of 11e, absence vs presence of folic acid (250 μM); p < 0.01.
For data set [7], the target named is T1, HDAC6 (Homo sapiens, UniProt Q9UBN7).
T1 sequence (Q9UBN7 1-1215): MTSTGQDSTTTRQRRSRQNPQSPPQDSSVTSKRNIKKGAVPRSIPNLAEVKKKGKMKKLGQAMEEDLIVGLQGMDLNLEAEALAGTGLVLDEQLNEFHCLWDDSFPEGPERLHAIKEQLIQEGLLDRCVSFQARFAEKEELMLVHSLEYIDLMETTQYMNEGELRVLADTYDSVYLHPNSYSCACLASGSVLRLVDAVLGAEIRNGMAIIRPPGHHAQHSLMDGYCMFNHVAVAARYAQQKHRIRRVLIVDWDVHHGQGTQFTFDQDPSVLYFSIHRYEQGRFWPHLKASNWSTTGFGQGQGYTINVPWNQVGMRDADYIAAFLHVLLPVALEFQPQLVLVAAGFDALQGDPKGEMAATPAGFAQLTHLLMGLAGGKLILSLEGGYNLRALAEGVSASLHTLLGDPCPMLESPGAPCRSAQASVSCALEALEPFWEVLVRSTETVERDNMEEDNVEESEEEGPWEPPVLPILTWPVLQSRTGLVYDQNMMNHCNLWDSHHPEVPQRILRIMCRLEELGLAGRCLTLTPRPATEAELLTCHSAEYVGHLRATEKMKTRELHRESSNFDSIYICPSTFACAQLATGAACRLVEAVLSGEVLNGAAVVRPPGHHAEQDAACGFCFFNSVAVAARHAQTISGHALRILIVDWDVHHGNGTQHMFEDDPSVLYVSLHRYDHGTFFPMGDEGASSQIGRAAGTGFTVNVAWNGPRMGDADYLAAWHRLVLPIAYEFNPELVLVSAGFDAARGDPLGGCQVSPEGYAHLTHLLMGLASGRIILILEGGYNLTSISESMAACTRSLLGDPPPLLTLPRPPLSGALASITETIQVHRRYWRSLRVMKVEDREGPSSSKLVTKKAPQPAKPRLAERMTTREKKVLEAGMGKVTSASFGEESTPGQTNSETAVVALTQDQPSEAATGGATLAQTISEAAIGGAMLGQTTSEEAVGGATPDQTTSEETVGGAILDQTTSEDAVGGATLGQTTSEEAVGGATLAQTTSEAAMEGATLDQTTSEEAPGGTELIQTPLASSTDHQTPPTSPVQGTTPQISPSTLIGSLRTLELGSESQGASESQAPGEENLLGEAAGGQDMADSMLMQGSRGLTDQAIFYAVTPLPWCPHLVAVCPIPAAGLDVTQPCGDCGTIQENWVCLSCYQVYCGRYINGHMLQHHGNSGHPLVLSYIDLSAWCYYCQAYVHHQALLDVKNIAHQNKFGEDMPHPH
Kind of data set: SAMDI mass spectrometry HDAC activity assay, HDAC6. The class given is biochemical.

Data set [8] has as its target T2, HDAC8 (Homo sapiens, UniProt Q9BY41).
T2 sequence (Q9BY41 1-377): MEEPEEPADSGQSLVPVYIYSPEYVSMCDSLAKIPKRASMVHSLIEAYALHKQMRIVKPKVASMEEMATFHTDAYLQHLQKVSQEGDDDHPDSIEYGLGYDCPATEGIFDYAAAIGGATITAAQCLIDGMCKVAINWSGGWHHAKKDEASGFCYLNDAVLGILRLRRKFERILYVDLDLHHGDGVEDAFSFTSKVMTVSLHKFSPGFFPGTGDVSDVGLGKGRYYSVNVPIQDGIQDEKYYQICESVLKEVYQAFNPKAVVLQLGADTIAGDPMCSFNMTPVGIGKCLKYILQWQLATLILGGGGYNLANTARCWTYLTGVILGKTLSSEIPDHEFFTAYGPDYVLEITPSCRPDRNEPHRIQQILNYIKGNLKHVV
Kind of data set: SAMDI mass spectrometry HDAC activity assay, HDAC8. It is filed as biochemical.

Data set [9] addresses HDAC1 (Homo sapiens, UniProt Q13547). Kind of data set: SAMDI mass spectrometry HDAC activity assay, HDAC1. It is filed as biochemical.
Where [10] appears, read: SAHA 2 and 20μM, 11d 50 and 100μM, 11e 30 and 100μM.

HDAC1, sequence (Q13547 whole entry): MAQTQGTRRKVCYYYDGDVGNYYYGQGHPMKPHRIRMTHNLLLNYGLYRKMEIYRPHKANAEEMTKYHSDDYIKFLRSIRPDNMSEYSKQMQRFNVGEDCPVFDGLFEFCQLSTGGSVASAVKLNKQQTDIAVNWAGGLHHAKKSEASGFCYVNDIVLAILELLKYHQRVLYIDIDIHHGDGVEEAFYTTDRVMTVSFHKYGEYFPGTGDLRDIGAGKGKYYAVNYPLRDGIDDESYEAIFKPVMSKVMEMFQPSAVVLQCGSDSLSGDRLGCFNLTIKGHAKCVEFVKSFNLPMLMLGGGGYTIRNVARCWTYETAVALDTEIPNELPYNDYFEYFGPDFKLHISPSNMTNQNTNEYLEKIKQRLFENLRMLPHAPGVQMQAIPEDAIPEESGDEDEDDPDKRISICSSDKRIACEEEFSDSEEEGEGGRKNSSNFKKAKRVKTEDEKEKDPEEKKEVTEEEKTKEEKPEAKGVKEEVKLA

As to `Nc1nc2ncc(CNc3ccc(C(=O)NO)cc3)nc2c(=O)[nH]1` [compound 7, 4-(((2-Amino-4-oxo-3,4-dihydropteridin-6-yl)methyl)amino)-N-hydroxybenzamide], the “Cytotoxicity to HeLa cells, in words” value in data set [1] is recorded as “not cytotoxic”. Further, in [2], the “Cytotoxicity to KB cells, in words” value is “not cytotoxic”. Besides, in [3] (100 μM, relative to the control), the “Histone H4 acetylation” value is reported as “little effect on H4 acetylation”.
As for `CN1CCc2c(c3ccccc3n2Cc2ccc(C(=O)NO)cc2)C1` [Tubastatin A, reference compound], the “Histone H4 acetylation” value in data set [3] (14 μM) was “significant increase in H4 acetylation”.
Take `Nc1nc2ncc(CNc3ccc(C(=O)NCCCCCCC(=O)NO)cc3)nc2c(=O)[nH]1` [11d, 4-(((2-Amino-4-oxo-3,4-dihydropteridin-6-yl)methyl)amino)-N-(7-(hydroxyamino)-7-oxoheptyl)benzamide]: in data set [4], the “Activity against A549 cells, in words” value was “inactive”. In addition, the Acetylated tubulin levels result in data set [5] was “increase in acetylated tubulin levels”. Also, in [3] (setting [10]), the “Histone H4 acetylation” value is “dose dependent increases in histone H4 acetylation”.
Take `Nc1nc2ncc(CNc3ccc(C(=O)NCCCCCCCC(=O)NO)cc3)nc2c(=O)[nH]1` [11e, 4-(((2-Amino-4-oxo-3,4-dihydropteridin-6-yl)methyl)amino)-N-(8-(hydroxyamino)-8-oxooctyl)benzamide]: the “Activity against A549 cells, in words” value in data set [4] is “inactive”. Further, the “Effect of folic acid on cytotoxicity (viability of KB cells)” value in [6] was “reduced the cytotoxicity”. Further, in [5], the Acetylated tubulin levels entry is “increase in acetylated tubulin levels”. Besides, in data set [3] (setting [10]), the “Histone H4 acetylation” value is given as “dose dependent increases in histone H4 acetylation”.
With `O=C(CCCCCCC(=O)Nc1ccccc1)NO` [SAHA, reference compound], the Acetylated tubulin levels result in data set [5] is reported as “increase in acetylated tubulin levels”. In data set [3] (setting [10]), the “Histone H4 acetylation” value is reported as “dose dependent increases in histone H4 acetylation”.
`Nc1nc2ncc(CNc3ccc(C(=O)N[C@@H](CCC(=O)NO)C(=O)O)cc3)nc2c(=O)[nH]1` [compound 6, 2-(4-(((2-Amino-4-oxo-3,4-dihydropteridin-6-yl)methyl)amino)benzamido)-5-(hydroxyamino)-5-oxopentanoic acid]: in data set [7], the “HDAC6 inhibition, in words” value was “inactive”. In [8], the “HDAC8 inhibition, in words” value was “inactive”. Also, the “HDAC1 inhibition, in words” value in data set [9] was “inactive”.
